Reference: patent US12396961B2, “Compounds and compositions for intracellular delivery of agents” (ModernaTX, Inc., priority 2015, dated 2025)

Tested on: luciferase (Luc) mRNA expression
Test: Luc expression (AUC) in CD-1 mice relative to MC3
Type: in vivo
Conditions: Luc expression relative to MC3, CD-1 mice
Procedure: FIG. 15 is a graph summarizing luciferase expression levels at 6 h after administration of nanoparticle compositions containing compounds of the disclosure to CD-1 mice at a dose of 0.5 mpk. Total light flux values were acquired via body luminescent imaging (BLI) 6 h after administration. In this Figure, the numbers 1-7 and 10 refer to the compositions containing Compounds 4-10 and MC3 respectively.
In contrast, hEPO expression in rats induced by administration of nanoparticle composition including compound according to one of formulae (I), (Ia1)-(Ia6), (Ib), (II), (IIa), (III), and (IIIa) was substantially lower than that measured for MC3. […] Table 7c and 7d show additional protein expressions and clearance data from compositions with various compounds disclosed herein as compared to with MC3.

SMILES	Lipid/MC3 Luc CD-1 (mice)
CCCCCCCCCCCCN(CCCCCCCCCCCC)CCN(CCCCCCCCCCCC)CCN1CCN(CCN(CCCCCC(=O)OCCCCC)CCCCCC(=O)OCCCCC)CC1 [Compound 14, Dipentyl 6,6′-((2-(4-(2-((2-(didodecylamino)ethyl)(dodecyl)amino)ethyl)piperazin-1-yl)ethyl)azanediyl)dihexanoate]	0.070

Tested on: hEPO mRNA expression
Test: Expression of hEPO in mice (CD-1)
Type: in vivo, CD-1 mice
Conditions: Table 7e; hEPO expression, CD-1 mice, 0.5 mpk
Description: FIG. 12 is a set of graphs illustrating hEPO expression levels in CD-1 mice dosed with compounds of the disclosure, compared to MC3. PBS is used as control. […] In graphs A-C numbers 1-14 refer to compositions containing the following: 1: Compound 73, 2: Compound 80, 3: Compound 70; 4: Compound 81; 5: Compound 69; 6: Compound 82; 7: Compound 83; 8: Compound 62; 9: Compound 84; 10: Compound 85; 11: Compound 86; 12: Compound 87; 13: MC3; 14: PBS.
FIG. 13 is a graph showing hEPO levels (pg/mL) in CD-1 mice up to −25 h after administration of a nanoparticle composition containing compounds of the disclosure, compared to a composition containing MC3. Numbers 1-13 refer to compositions containing the following: 1: Compound 73, 2: Compound 80, 3: Compound 70; 4: Compound 81; 5: Compound 69; 6: Compound 82; 7: Compound 83; 8: Compound 62; 9: Compound 84; 10: Compound 85; 11: Compound 86; 12: Compound 87; 13: MC3. […]

SMILES	Lipid/MC3 AUC
CCCCCCCCCN(CCCCCCCCC)CCN(CCCCCCCCC)CC(=O)N1CCC(CN(CCCCCCCCC)CCCC(=O)OCCCCC)C1 (stereo not shown) [Compound 82, Pentyl 4-(((1-(N-(2-(dinonylamino)ethyl)-N-nonylglycyl)pyrrolidin-3-yl)methyl)(nonyl)amino)butanoate]	3.62
CCCCCCCCCN(CCCC(=O)OCCCCC)CCC1CCCN(C(=O)CN(CCCCCCCCC)CCN(CCCCCCCCC)CCCCCCCCC)C1 (stereo not shown) [Compound 80, Pentyl 4-((2-(1-(N-(2-(dinonylamino)ethyl)-N-nonylglycyl)piperidin-3-yl)ethyl)(nonyl)amino)butanoate]	1.74
CCCCCCCCCN(CCCC(=O)OCCCCC)CCC1CCN(C(=O)CN(CCCCCCCCC)CCN(CCCCCCCCC)CCCCCCCCC)C1 (stereo not shown) [Compound 81, Pentyl 4-((2-(1-(N-(2-(dinonylamino)ethyl)-N-nonylglycyl)pyrrolidin-3-yl)ethyl)(nonyl)amino)butanoate]	3.01
CCCCCCCCCN(CCCCCCCCC)CCCC1CCN(C(=O)CCN(CCCCCCCCC)CCN(CCCCCCCCC)CCCCCCCCC)CC1 [Compound 85, 3-((2-(Dinonylamino)ethyl)(nonyl)amino)-1-(4-(3-(dinonylamino)propyl)piperidin-1-yl)propan-1-one]	3.54
CCCCCCCCCN(CCCCCCCCC)CCC1CCCN(C(=O)CN(CCCCCCCCC)CCN(CCCCCCCCC)CCCCCCCCC)C1 (stereo not shown) [Compound 73, 2-((2-(Dinonylamino)ethyl)(nonyl)amino)-1-(3-(2-(dinonylamino)ethyl)piperidin-1-yl)ethan-1-one]	3.93
CCCCCCCCCN(CCCCCCCCC)CCN(CCCCCCCCC)CC(=O)N1CCC(CN(CCCCCCCCC)CCCCCCCCC)C1 (stereo not shown) [Compound 70, 2-((2-(Dinonylamino)ethyl)(nonyl)amino)-1-(3-((dinonylamino)methyl)pyrrolidin-1-yl)ethan-1-one]	1.77
CCCCCCCCCN(CCCOC(=O)CCCCC)CCCC1CCN(C(=O)CCN(CCCCCCCCC)CCN(CCCCCCCCC)CCCCCCCCC)CC1 [Compound 87, 3-((3-(1-(3-((2-(Dinonylamino)ethyl)(nonyl)amino)propanoyl)piperidin-4-yl)propyl)(nonyl)amino)propyl hexanoate]	0.80
CCCCCCCCCN(CCCC(=O)OCCCCC)CCC(=O)N1CCN(C(=O)CCN(CCCCCCCCC)CCN(CCCCCCCCC)CCCCCCCCC)CC1 [Compound 62, Pentyl 4-((3-(4-(3-((2-(dinonylamino)ethyl)(nonyl)amino)propanoyl)piperazin-1-yl)-3-oxopropyl)(nonyl)amino)butanoate]	0.97
CCCCCCCCCN(CCCC(=O)OCCCCC)CCC1CCN(C(=O)CN(CCCCCCCCC)CCN(CCCCCCCCC)CCCCCCCCC)CC1 [Compound 83, Pentyl 4-((2-(1-(N-(2-(dinonylamino)ethyl)-N-nonylglycyl)piperidin-4-yl)ethyl)(nonyl)amino)butanoate]	1.46
CCCCCCCCCN(CCCOC(=O)CCCCC)CCC(=O)N1CCN(C(=O)CCN(CCCCCCCCC)CCN(CCCCCCCCC)CCCCCCCCC)CC1 [Compound 86, 3-((3-(4-(3-((2-(Dinonylamino)ethyl)(nonyl)amino)propanoyl)piperazin-1-yl)-3-oxopropyl)(nonyl)amino)propyl Hexanoate]	0.49
CCCCCCCCCN(CCCCCCCCC)CCC1CCN(C(=O)CN(CCCCCCCCC)CCN(CCCCCCCCC)CCCCCCCCC)C1 (stereo not shown) [Compound 69, 2-((2-(Dinonylamino)ethyl)(nonyl)amino)-1-(3-(2-(dinonylamino)ethyl)pyrrolidin-1-yl)ethan-1-one]	6.52
CCCCCCCCCN(CCCC(=O)OCCCCC)CCCC1CCN(C(=O)CCN(CCCCCCCCC)CCN(CCCCCCCCC)CCCCCCCCC)CC1 [Compound 84, Pentyl 4-((3-(1-(3-((2-(dinonylamino)ethyl)(nonyl)amino)propanoyl)piperidin-4-yl)propyl)(nonyl)amino)butanoate]	1.43

Tested on: luciferase (Luc) mRNA expression
Test: Expression of Luc, bioluminescence (total flux) after intravenous administration to mice
Type: in vivo
Conditions: mice i.v. 0.5 mg/kg; 3, 6, 24 hours
Procedure: In order to monitor how effectively various nanoparticle compositions deliver therapeutic and/or prophylactic agents to targeted cells, different nanoparticle compositions including a particular therapeutic and/or prophylactic agent (for example, a modified or naturally occurring RNA such as an mRNA) are prepared and administered to rodent populations. Mice are intravenously, intramuscularly, intraarterially, or intratumorally administered a single dose including a nanoparticle composition with a formulation such as those provided in Table 1. In some instances, mice may be made to inhale doses. Dose sizes may range from 0.001 mg/kg to 10 mg/kg, where 10 mg/kg describes a dose including 10 mg of a therapeutic and/or prophylactic agent in a nanoparticle composition for each 1 kg of body mass of the mouse. A control composition including PBS may also be employed.
Upon administration of nanoparticle compositions to mice, dose delivery profiles, dose responses, and toxicity of particular formulations and doses thereof can be measured by enzyme-linked immunosorbent assays (ELISA), bioluminescent imaging, or other methods. For nanoparticle compositions including mRNA, time courses of protein expression can also be evaluated. Samples collected from the rodents for evaluation may include blood, sera, and tissue (for example, muscle tissue from the site of an intramuscular injection and internal tissue); sample collection may involve sacrifice of the animals.
The efficacy of the nanoparticle compositions presented in Tables 1, la, 17-1, 19-1, 20-1 and 21-1 was evaluated with a bioluminescence study. Formulations were administered intravenously to mice (n=6) at a dosage of 0.5 mg/kg (mpk) and bioluminescence measured at 3, 6, and 24 hour time points. The standard MC3 formulation and a PBS control were evaluated for comparison.

SMILES	Total flux (Luc expression), comparison in words over the time points of the table named
CCCCCCCCCCCCN(CCCCCCCCCCCC)CCN1CCNCC1 [Compound 19-2, N-Dodecyl-N-(2-(piperazin-1-yl)ethyl)dodecan-1-amine]	lowest total flux
CCCCCCCCCCCCN(CCCCCCCCCCCC)CCN1CCN(Cc2ccc(OC)cc2)CC1 [Compound 19-5, N-Dodecyl-N-(2-(4-(4-methoxybenzyl)piperazin-1-yl)ethyl)dodecan-1-amine]	next highest flux
CCCCC/C=C\C/C=C\CCCCCCCCN(CCCCCCCC/C=C\C/C=C\CCCCC)CCN1CCN(CCCCCCCCCCCC)CC1 [Compound 19-6, (9Z,12Z)—N-(2-(4-Dodecylpiperazin-1-yl)ethyl)-N-((9Z,12Z)-octadeca-9,12-dien-1-yl)octadeca-9,12-dien-1-amine]	next highest flux
CCCCC/C=C\C/C=C\CCCCCCCCN(CCO)CCCCCCCCCCCC [Compound 17-4, 2-(Dodecyl((9Z,12Z)-octadeca-9,12-dien-1-yl)amino)ethan-1-ol]	substantially higher flux than compositions including Compounds 17-2, 17-3, and 17-7
CCCCCCCC/C=C\CCCCCCCCN(CCO)CCCCCCCC/C=C\CCCCCCCC [Compound 17-8, 2-(Di((Z)-octadec-9-en-1-yl)amino)ethan-1-ol]	substantially higher flux than compositions including Compounds 17-2, 17-3, and 17-7

Same assay, conditions: mice; in words

SMILES	Luc expression in mice compared with MC3 (Table 7a)
CCCCCCCCCCCCN(CCCCCCCCCCCC)CCN(CCCCCCCCCCCC)CCN1CCN(CCN(CCCCCC(=O)OCCCCC)CCCCCC(=O)OCCCCC)CC1 [Compound 14, Dipentyl 6,6′-((2-(4-(2-((2-(didodecylamino)ethyl)(dodecyl)amino)ethyl)piperazin-1-yl)ethyl)azanediyl)dihexanoate]	significantly lower

Tested on: not listed separately
Test: Particle size and polydispersity index (Zetasizer Nano ZS)
Type: physicochemical
Conditions: Table 1; DOPE 40:20:38.5:1.5, Luc mRNA
Description: Nanoparticle compositions may be characterized by a variety of methods. For example, microscopy (e.g., transmission electron microscopy or scanning electron microscopy) may be used to examine the morphology and size distribution of a nanoparticle composition. Dynamic light scattering or potentiometry (e.g., potentiometric titrations) may be used to measure zeta potentials. Dynamic light scattering may also be utilized to determine particle sizes. Instruments such as the Zetasizer Nano ZS (Malvern Instruments Ltd, Malvern, Worcestershire, UK) may also be used to measure multiple characteristics of a nanoparticle composition, such as particle size, polydispersity index, and zeta potential.
A Zetasizer Nano ZS (Malvern Instruments Ltd, Malvern, Worcestershire, UK) can be used to determine the particle size, the polydispersity index (PDI) and the zeta potential of the nanoparticle compositions in 1×PBS in determining particle size and 15 mM PBS in determining zeta potential.

SMILES	PDI
CCCCCCCCCCCCN(CCCCCCCCCCCC)CCN(CCCCCCCCCCCC)CCN1CCN(CCN(CCCCCC(=O)OCCCCC)CCCCCC(=O)OCCCCC)CC1 [Compound 14, Dipentyl 6,6′-((2-(4-(2-((2-(didodecylamino)ethyl)(dodecyl)amino)ethyl)piperazin-1-yl)ethyl)azanediyl)dihexanoate]	0.008

Same assay, conditions: formulated with hEPO mRNA

SMILES	PDI
CCCCCCCCCCCCN(CCCCCCCCCCCC)CCN(CCCCCCCCCCCC)CCN1CCN(CCN(CCCCCCCCCCCC(=O)OC)CCCCCCCCCCCC(=O)OC)CC1 [Compound 16, Dimethyl 12,12′-((2-(4-(2-((2-(didodecylamino)ethyl)(dodecyl)amino)ethyl)piperazin-1-yl)ethyl)azanediyl)didodecanoate]	0.140

Tested on: hEPO mRNA expression
Test: Expression of hEPO after intravenous administration to rats
Type: in vivo
Conditions: rats i.v.; 3, 6, 24 hours
Procedure: PBS (phosphate buffered saline) is used as control.
Formulations were prepared according to Table 5 and included mRNA encoding hEPO.
[…] After the 48 hour time point, livers and spleens were harvested and frozen.

SMILES	hEPO expression at each time point, comparison in words (Table 6)
CCCCCCCCCCCCN(CCCCCCCCCCCC)CCN(CCCCCCCCCCCC)CCN1CCN(CCN(CCCCCCCCCCCC(=O)OC)CCCCCCCCCCCC(=O)OC)CC1 [Compound 16, Dimethyl 12,12′-((2-(4-(2-((2-(didodecylamino)ethyl)(dodecyl)amino)ethyl)piperazin-1-yl)ethyl)azanediyl)didodecanoate]	lowest hEPO expression
